Series [1] is described as follows: Chemical stability at pH 2.0. It counts as physicochemical. As to conditions: pH 2 aqueous buffer, 3 h incubation at 37° C., LCMS. Here is the method:
(§1) The compounds of the invention were studied for their chemical stability:
10 mM DMSO solution of the compound of the formula (I) was prepared. 10 μl of the solution was added to 1 ml of pH 2 aqueous buffer at 37° C. The solution was kept at 37° C. At each time point, a small aliquote was taken and the sample was analyzed by LCMS.

The nature of series [2]: Chemical stability at pH 7.4. It counts as physicochemical. The settings on record: pH 7.4 aqueous phosphate buffer, 3 h incubation at 37° C., LCMS. How it is done:
as §1
10 mM DMSO solution of the compound of the formula (I) was prepared. 10 μl of the solution was added to 1 ml of pH 7.4 aqueous phosphate buffer at 37° C. The solution was kept at 37° C. At each time points, a small aliquote was taken and the sample was analyzed by LCMS.

The nature of series [3]: Stability of the isolated compound (observation in synthesis). The settings on record: after column chromatography, brown oil. It is filed as physicochemical. Here is the method:
Chloromethyl (4S,5S)-5-((2S)-2-{[(3-amino-2,2-dimethyl-3-oxopropyl)amino]carbonyl}-3-methylbutyl)-4-{(2S)-2-[4-methoxy-3-(3-methoxypropoxy)benzyl]-3-methylbutyl}-1,3-oxazolidine-3-carboxylate (191 mg) and sodium iodide (135 mg) were mixed with dry acetonitrile and heated under stirring at 75° C. for 1 h 20 min. Full conversion according to LC-MS. Reaction mixture was mixed with water and extracted into DCM, washed with brine, dried over MgSO4. 186 mg of crude product was obtained, which was purified by column chromatography on silica gel (EtOAc) to give 72 mg of pure material as brown oil. […] LCMS: 748.3 [M+1]^+, 770.3 [M+Na]^+.

For series [4] the following is noted: Clinical Pharmacokinetics, 2008, 47, 515-531; cited from earlier work.
Series [5] can be described thus: In vivo bioavailability experiment: plasma aliskiren after a single i.v. or oral dose. As to conditions: male, Sprague-Dawley, rat, rats, plasma up to 24 h. How it is done:
For comparison, aliskiren hemifumarate was dosed both i.v. (intravenous) and orally. For all experiment, the compounds were administrated to three individually weighted male Sprague-Dawley rats. For all po dosing, the dose was 25 μmole/kg in a dose volume of 8 ml/kg and the dose vehicle was 50% propylene glycol/50% pH 4.75 buffer (0.1M aqueous buffer of NaOAc/HOAc) by volume ratio. […] For the i.v. dosing of the compounds of invention, a vehicle of 45% PEG400/55% pH 4.75 buffer (0.1M aqueous buffer of NaOAc/HOAc) by volume ratio was used and the dose were 5 μmole/kg in a dose volume of 1.5 ml/kg. Male Sprague-Dawley rats were fasted for about 16-17 h before po dosing and fasting lasted about 2-3 h post-dose. Water was given ad libitum. The blood samples were taken at different time points up to 24 h. For i.v. dosing group, at 5 min, 15 min, 30 min, 1 h, 2 h, 4 h, 6 h, 8 h, 24 h. For oral doing group, at 15 min, 30 min, 1 h, 2 h, 4 h, […], 24 h. The blood samples were collected in heparinized tube and centrifuged at 3500 rpm for 5 min. The plasma samples were stored at about −20° C. for analysis.
After the work-up of the plasma samples, LC-MS/MS was used for the quantitation of the aliskiren and the compounds of the invention. Standard curves were made for aliskiren and the substances for study.

This is an account of results in patent publication US20130005730A1, “NOVEL 1,3-OXAZOLIDINE COMPOUNDS AND THEIR USE AS RENIN INHIBITORS” (priority 2009, published 2013).

Structures can show the parent of a compound that is named as a salt.

With `COCCCOc1cc(C[C@@H](C[C@H]2[C@H](C[C@H](C(=O)NCC(C)(C)C(N)=O)C(C)C)OCN2C(=O)OCOC(=O)c2cncn2C)C(C)C)ccc1OC` [Example 44, {[(1-methyl-1H-imidazol-5-yl)carbonyl]oxy}methyl (4S,5S)-5-((2S)-2-{[(3-amino-2,2-dimethyl-3-oxopropyl)amino]carbonyl}-3-methylbutyl)-4-{(2S)-2-[4-methoxy-3-(3-methoxypropoxy)benzyl]-3-methylbutyl}-1,3-oxazolidine-3-carboxylate], in series [1], the “Chemical stability pH 2 (decomposition)” value was “A (Less than 5% decomposition after 3 h incubation at 37° C.)”. Moreover, the “Chemical stability pH 7.4 (decomposition)” value in series [2] is on record as “A (Less than 5% decomposition after 3 h incubation at 37° C.)”.

As for `COCCCOc1cc(C[C@@H](C[C@H]2[C@H](C[C@H](C(=O)NCC(C)(C)C(N)=O)C(C)C)OCN2C(=O)OCI)C(C)C)ccc1OC` [Example 14, Iodomethyl (4S,5S)-5-((2S)-2-{[(3-amino-2,2-dimethyl-3-oxopropyl)amino]carbonyl}-3-methylbutyl)-4-{(2S)-2-[4-methoxy-3-(3-methoxypropoxy)benzyl]-3-methylbutyl}-1,3-oxazolidine-3-carboxylate], in series [3], the “stability of the compound” value is “not stable and decomposes rather rapidly”.

Take `COCCCOc1cc(C[C@@H](C[C@H](N)[C@@H](O)C[C@H](C(=O)NCC(C)(C)C(N)=O)C(C)C)C(C)C)ccc1OC` [Aliskiren, (2S,4S,5S,7S)—N-(2-Carbamoyl-2-methylpropyl)-5-amino-4-hydroxy-2,7-diisopropyl-8-[4-methoxy-3-(3-methoxypropoxy)phenyl]-octanamide, reference compound]: the “Chemical stability pH 2 (decomposition)” value in series [1] is given as “A (Less than 5% decomposition after 3 h incubation at 37° C.)”. Further, the “Chemical stability pH 7.4 (decomposition)” value in series [2] is on record as “A (Less than 5% decomposition after 3 h incubation at 37° C.)”. Moreover, the oral bioavailability entry in series [4] is recorded as “about 2.6%”.

For the molecule `COCCCOc1cc(C[C@@H](C[C@H]2[C@H](C[C@H](C(=O)NCC(C)(C)C(N)=O)C(C)C)OCN2C(=O)OCOC(=O)C2(N)CC2)C(C)C)ccc1OC.O=C(O)C(F)(F)F` [Example 43, {[(1-aminocyclopropyl)carbonyl]oxy}methyl (4S,5S)-5-((2S)-2-{[(3-amino-2,2-dimethyl-3-oxopropyl)amino]carbonyl}-3-methylbutyl)-4-{(2S)-2-[4-methoxy-3-(3-methoxypropoxy)benzyl]-3-methylbutyl}-1,3-oxazolidine-3-carboxylate, trifluoroacetate], the “Chemical stability pH 2 (decomposition)” value in series [1] is “A (Less than 5% decomposition after 3 h incubation at 37° C.)”. Besides, in series [2], the “Chemical stability pH 7.4 (decomposition)” value was “B (Less than 25% decomposition after 3 h incubation at 37° C.)”.

Consider `COCCCOc1cc(C[C@@H](C[C@H]2[C@H](C[C@H](C(=O)NCC(C)(C)C(N)=O)C(C)C)OCN2C(=O)OCOC(=O)OC(C)C)C(C)C)ccc1OC` [Example 12, (4S,5S)-(isopropoxycarbonyloxy)methyl 5-[(S)-2-(3-amino-2,2-dimethyl-3-oxopropylcarbamoyl)-3-methylbutyl]-4-{(S)-2-[4-methoxy-3-(methoxypropoxy)benzyl]-3-methylbutyl}oxazolidine-3-carboxylate], for which the “Chemical stability pH 2 (decomposition)” value in series [1] is “A (Less than 5% decomposition after 3 h incubation at 37° C.)”. In addition, the “Chemical stability pH 7.4 (decomposition)” value in series [2] is reported as “B (Less than 25% decomposition after 3 h incubation at 37° C.)”.

In the case of `COCCCOc1cc(C[C@@H](C[C@H]2[C@H](C[C@H](C(=O)NCC(C)(C)C(N)=O)C(C)C)OCN2C(=O)OCOC(=O)C(C)(C)CO)C(C)C)ccc1OC` [Example 27, [(3-hydroxy-2,2-dimethylpropanoyl)oxy]methyl (4S,5S)-5-((2S)-2-{[(3-amino-2,2-dimethyl-3-oxopropyl)amino]carbonyl}-3-methylbutyl)-4-{(2S)-2-[4-methoxy-3-(3-methoxypropoxy)benzyl]-3-methylbutyl}-1,3-oxazolidine-3-carboxylate], in series [1], the “Chemical stability pH 2 (decomposition)” value is recorded as “A (Less than 5% decomposition after 3 h incubation at 37° C.)”. Besides, the “Chemical stability pH 7.4 (decomposition)” value in series [2] is “A (Less than 5% decomposition after 3 h incubation at 37° C.)”.

The AUC(0-t) is exposure summed from dosing to a finite time, without extrapolation to infinity. Take `COCCCOc1cc(C[C@@H](C[C@H](N)[C@@H](O)C[C@H](C(=O)NCC(C)(C)C(N)=O)C(C)C)C(C)C)ccc1OC` [Aliskiren hemifumarate]: the AUC(0-t) is 994 ± 162 ng·h/mL in series [5] (iv, i.v. 5 μmole/kg) and 28 ± 20.5 ng·h/mL in series [5] (po, p.o. 25 μmole/kg).

Take `COCCCOc1cc(C[C@@H](C[C@H]2[C@H](C[C@H](C(=O)NCC(C)(C)C(N)=O)C(C)C)OCN2C(=O)OCOC(=O)C2(CN)CC2)C(C)C)ccc1OC` [Example 53, {1-[({[((4S,5S)-5-((2S)-2-{[(3-amino-2,2-dimethyl-3-oxopropyl)amino]carbonyl}-3-methylbutyl)-4-{(2S)-2-[4-methoxy-3-(3-methoxypropoxy)benzyl]-3-methylbutyl}-1,3-oxazolidin-3-yl)carbonyl]oxy}methoxy)carbonyl]cyclopropyl}methanaminium trifluoroacetate]: the “Chemical stability pH 2 (decomposition)” value in series [1] is “A (Less than 5% decomposition after 3 h incubation at 37° C.)”. In addition, the “Chemical stability pH 7.4 (decomposition)” value in series [2] is on record as “C (Less than 50% decomposition after 3 h incubation at 37° C.)”.

Regarding `COCCCOc1cc(C[C@@H](C[C@H]2[C@H](C[C@H](C(=O)NCC(C)(C)C(N)=O)C(C)C)OCN2C(=O)OCOC(=O)OC2CCN(C)CC2)C(C)C)ccc1OC` [Example 35, ({[(1-methylpiperidin-4-yl)oxy]carbonyl}oxy)methyl (4S,5S)-5-((2S)-2-{[(3-amino-2,2-dimethyl-3-oxopropyl)amino]carbonyl}-3-methylbutyl)-4-{(2S)-2-[4-methoxy-3-(3-methoxypropoxy)benzyl]-3-methylbutyl}-1,3-oxazolidine-3-carboxylate], in series [1], the “Chemical stability pH 2 (decomposition)” value is “A (Less than 5% decomposition after 3 h incubation at 37° C.)”. Further, the “Chemical stability pH 7.4 (decomposition)” value in series [2] is reported as “A (Less than 5% decomposition after 3 h incubation at 37° C.)”.

As to `COCCCOc1cc(C[C@@H](C[C@H]2[C@H](C[C@H](C(=O)NCC(C)(C)C(N)=O)C(C)C)OCN2C(=O)OCOC(=O)C2COCOC2)C(C)C)ccc1OC` [Example 32, [(1,3-dioxan-5-ylcarbonyl)oxy]methyl (4S,5S)-5-((2S)-2-{[(3-amino-2,2-dimethyl-3-oxopropyl)amino]carbonyl}-3-methylbutyl)-4-{(2S)-2-[4-methoxy-3-(3-methoxypropoxy)benzyl]-3-methylbutyl}-1,3-oxazolidine-3-carboxylate], the “Chemical stability pH 2 (decomposition)” value in series [1] is on record as “A (Less than 5% decomposition after 3 h incubation at 37° C.)”. The “Chemical stability pH 7.4 (decomposition)” value in series [2] is listed as “B (Less than 25% decomposition after 3 h incubation at 37° C.)”.

As for `COCCCOc1cc(C[C@@H](C[C@H]2[C@H](C[C@H](C(=O)NCC(C)(C)C(N)=O)C(C)C)OCN2C(=O)OCOC(=O)C(C)(C)C)C(C)C)ccc1OC` [Example 6, (4S,5S)-pivaloyloxymethyl 5-[(S)-2-(3-amino-2,2-dimethyl-3-oxopropylcarbamoyl)-3-methylbutyl]-4-{(S)-2-[4-methoxy-3-(methoxypropoxy)benzyl]-3-methylbutyl}oxazolidine-3-carboxylate], in series [1], the “Chemical stability pH 2 (decomposition)” value is recorded as “A (Less than 5% decomposition after 3 h incubation at 37° C.)”. For the same molecule, in series [2], the “Chemical stability pH 7.4 (decomposition)” value is listed as “B (Less than 25% decomposition after 3 h incubation at 37° C.)”.
